Patent publication US20240417734A1, “Methods for Treating Glioblastoma by Targeting Oncomirs” (University of Connecticut, priority 2021, published 2024)

Columns and labels:
[1] = test system: U87 cells; assay: Cell viability assay, U87; type: cell-based, human; settings: BNP 0.5 mg/mL, TMZ 20 μM
Procedure: Cells were seeded in 96-well plates at a density of 5,000 cells/well and treated with increasing concentrations of NP formulations. Cell viability was evaluated by CellTiter-Glo Luminescent Cell Viability Assay (Promega) after 48 h, 72 h treatment. Luminescence was measured using a plate reader (SpectraMax M5) and relative cell viability was normalized to the viability of untreated cells. For TMZ involved combination studies, cells were seeded in 96-well plates at a density of 1,000 cells/well and exposed to sγPNA/NNP and sγPNA/BNP. After 72 h of treatments, NPs were removed and TMZ was added to the wells. Cell viability was measured as described above after 6 days of treatment.

[2] = test system: intracranial U87 tumors; assay: Survival study, intracranial U87 tumors; type: in vivo, mice; settings: NPs by CED 6 days post inoculation, TMZ 25 mg/kg i.p.
Procedure: (§1) Animals were anaesthetized using a mixture of ketamine (100 mg/kg) and xylazine (10 mg/kg) via intraperitoneal injection. Anesthetized animals were then placed in a stereotaxic frame and sterilized the scalp with betadine and alcohol. To expose the coronal and sagittal sutures, a midline scalp incision was created, and a burr hole was drilled 2 mm lateral to the sagittal suture and 0.5 mm anterior to the bregma. U87 or G22 cells ([…]) in 3 μL PBS were injected into the right stratum over 3 min using a 10-μL Hamilton syringe. The animal was left 5 min for tissue equilibration before and after infusion. When infusion was finished, the burr hole was filled with bone wax and skin was stapled and cleaned.
(§2) CED in tumor bearing mice was similar to tumor inoculation by reopening the burr hole used for tumor inoculation. A micro-infusion pump (World Precision Instruments) was used to infuse 6 μL of NPs at a rate of […].
(§3) Tumors grew for 6 days before the administration of treatment. Intracranial CED of sγPNA/BNP was conducted following the same surgical procedure as described. TMZ (25 mg/kg) in PBS was administered intraperitoneally on day 7. Animals were monitored daily and weighed every week. […] Total RNA in the tumor and contralateral hemisphere was isolated using mirVana miRNA Isolation Kit and analyzed by real-time PCR detection system as previously described.

[3] = test system: patient (G22) derived intracranial gliomas; assay: Survival study, patient-derived G22 orthotopic tumors; type: in vivo, mice; settings: G22 orthotopic model; single dose TMZ 25 mg/kg
Procedure: as §1, §2, §3

Q: Which “Cell viability/100” value [1] does the source give for Cn1nnc2c(C(N)=O)ncn2c1=O [TMZ, Temozolomide] here?
A: 0.66

Q: And the viability at 20 µM ([1]; Homo sapiens, U-87 MG, read-out: Cell viability (% of control))?
A: 66%

Q: What about the Median survival [2] of the same molecule?
A: 81 days

Q: And the Median survival [3]?
A: 79 days
